The target of test [1] is T1, butyrylcholinesterase (BuChE) (Rattus norvegicus, UniProt Q9JKC1).
T1 construct: total cholinesterase (ChE) and butyrylcholinesterase (BuChE) activities in rat brain homogenates; from tissue; host or cells: brain homogenate (10% w/v) of adult Wistar rats
Kind of test: Butyrylcholinesterase inhibition in rat brain homogenates (Ellman). The class given is biochemical. The note with it: mean SEM, n=3 in triplicates. The procedure: (§1) Cholinesterase activity was determined in rat brain homogenate following incubation with varying concentrations of the multifunctional pro-chelators of the invention (also referred to herein as “carbamates”).
(§2) Ellman's colorimetric method was adapted for determination of total cholinesterase (ChE) and butyrylcholinesterase (BuChE) activities in rat brain homogenates. Brain tissue from adult Wistar rats was homogenized at 2% w/v (or 10% w/v, for BuChE) in 0.1 M sodium phosphate buffer, pH 7.4, with added NaCl 58.5 g/l and Triton X-100 0.05% v/v. Aliquots of homogenate (20 μl) were incubated with the test compounds for designed time intervals in phosphate buffer pH 7.4, before addition of 5,5′-dithiobis(2-nitrobenzoic) acid and either 1 mM acetylthiocholine iodide or 10 mM butyrylthiocholine iodide (Sigma, St. Louis, Mo.). The reaction was run at 37° C. in a final volume of […] in 96-well microplates and was followed at 412 nm for 5 min with a plate reader. In every experiment, cholinesterase-independent (nonspecific) substrate hydrolysis was determined by including one experimental group treated with tacrine 30 μM. Appropriate tissue and reagent blanks were also included. Reaction velocities were determined in three or four replicates per condition; these were averaged and expressed as percent activity relative to control (solvent), after subtracting the rate of nonspecific hydrolysis.
(§3) The results are the mean SEM, n=3 in triplicates. ND—not determined.

The target in the next test is T2, rat brain MAO-B (Rattus norvegicus, UniProt P19643).
T2 construct: from tissue; host or cells: rat brain homogenate
T2 sequence (P19643 1-520): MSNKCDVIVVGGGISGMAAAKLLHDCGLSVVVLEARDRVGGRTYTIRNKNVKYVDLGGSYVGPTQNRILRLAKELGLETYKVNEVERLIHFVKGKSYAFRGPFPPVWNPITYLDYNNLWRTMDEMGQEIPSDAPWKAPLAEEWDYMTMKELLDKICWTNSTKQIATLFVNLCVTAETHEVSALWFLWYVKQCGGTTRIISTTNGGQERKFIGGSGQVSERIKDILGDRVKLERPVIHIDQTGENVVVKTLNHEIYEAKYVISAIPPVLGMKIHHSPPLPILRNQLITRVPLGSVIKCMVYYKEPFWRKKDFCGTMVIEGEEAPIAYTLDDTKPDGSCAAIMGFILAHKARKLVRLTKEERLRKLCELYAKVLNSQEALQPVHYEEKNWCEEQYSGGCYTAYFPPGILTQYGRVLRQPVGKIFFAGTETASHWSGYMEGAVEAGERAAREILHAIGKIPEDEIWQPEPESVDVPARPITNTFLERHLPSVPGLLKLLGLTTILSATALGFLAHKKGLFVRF
In words: biochemical. The note with it: IC50 MAO-B, rat brain homogenate in vitro; mean SEM, n=3 in triplicates. The procedure:
(§4) Rats were decapitated and the brains were quickly taken into a pre-weighted ice-cold sucrose buffer (10 mM Tris-HCl buffer, pH 7.4, containing 0.32 M sucrose), and their weights were measured. The brains were homogenized at 0-4° C. in 0.32 M sucrose (one part tissue to 20 parts sucrose) in a Teflon glass homogenizer. The resultant homogenates were used to determine MAO activity. Protein concentration was determined with Bradford reagent at 595 nm, using bovine serum albumin as a standard.
(§5) The activity of MAO-A and MAO-B were determined by the adapted method of Tipton & Youdim (Tipton et al. 1983). Briefly, the multifunctional compound tested was added to a suitable dilution of the enzyme preparation (70 μg MAO-B and 150 μg MAO-A) in 0.05 M phosphate buffer (pH 7.4). The mixture was incubated together with 0.05 μM 1-deprenyl, a specific inhibitor of MAO-B (for determination of MAO-A activity in the presence of the test compound) or 0.05 μM clorgyline a specific inhibitor of MAO-A (for determination of MAO-B activity). […] The reaction was stopped with 2M ice-cold citric acid, and the radioactive metabolites (5-hydroxytryptaldehyde and phenylacetaldehyde) were extracted by addition of 2 ml of ethylacetate/toluene (1:1 vol/vol). The radioactivity contained in the organic phase was determined by liquid-scintillation counting in cpm units.
(§6) MAO-A and MAO-B activities were determined in rat brain homogenate in vitro following incubation with varying concentrations of the test compounds.
(§7) The results are the mean SEM, n=3 in triplicates.

The target in the next test is T3, rat brain MAO-A (Rattus norvegicus, UniProt P21396).
T3 construct: from tissue; host or cells: rat brain homogenate
T3 sequence (P21396 1-526): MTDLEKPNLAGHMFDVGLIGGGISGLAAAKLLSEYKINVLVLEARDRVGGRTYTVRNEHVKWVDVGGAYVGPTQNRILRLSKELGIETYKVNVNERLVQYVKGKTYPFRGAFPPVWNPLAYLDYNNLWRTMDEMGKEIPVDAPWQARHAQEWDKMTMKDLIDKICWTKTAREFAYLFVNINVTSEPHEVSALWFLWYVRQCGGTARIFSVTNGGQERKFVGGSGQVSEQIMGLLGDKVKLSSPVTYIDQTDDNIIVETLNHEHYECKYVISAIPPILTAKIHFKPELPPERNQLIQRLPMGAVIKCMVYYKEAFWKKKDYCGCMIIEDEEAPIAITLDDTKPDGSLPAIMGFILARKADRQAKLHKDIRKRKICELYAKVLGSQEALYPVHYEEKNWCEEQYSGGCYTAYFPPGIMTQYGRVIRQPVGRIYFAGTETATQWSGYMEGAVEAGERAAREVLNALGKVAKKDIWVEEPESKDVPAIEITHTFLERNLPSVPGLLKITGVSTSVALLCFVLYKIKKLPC
In words: biochemical. The note with it: IC50 MAO-A, rat brain homogenate in vitro; mean SEM, n=3 in triplicates. As for the experimental part: as §4, §5, §6, §7

Test [2] deals with T4, rat brain cholinesterase (total ChE) (Rattus norvegicus, UniProt P37136).
T4 construct: rows headed: Ki (dissociation constant for EI); other: rat brain total ChE; mean of 3-4 experiments; k+2 (carbamylation rate constant); other: from ki; rate of carba
T4 sequence (P37136 32-614): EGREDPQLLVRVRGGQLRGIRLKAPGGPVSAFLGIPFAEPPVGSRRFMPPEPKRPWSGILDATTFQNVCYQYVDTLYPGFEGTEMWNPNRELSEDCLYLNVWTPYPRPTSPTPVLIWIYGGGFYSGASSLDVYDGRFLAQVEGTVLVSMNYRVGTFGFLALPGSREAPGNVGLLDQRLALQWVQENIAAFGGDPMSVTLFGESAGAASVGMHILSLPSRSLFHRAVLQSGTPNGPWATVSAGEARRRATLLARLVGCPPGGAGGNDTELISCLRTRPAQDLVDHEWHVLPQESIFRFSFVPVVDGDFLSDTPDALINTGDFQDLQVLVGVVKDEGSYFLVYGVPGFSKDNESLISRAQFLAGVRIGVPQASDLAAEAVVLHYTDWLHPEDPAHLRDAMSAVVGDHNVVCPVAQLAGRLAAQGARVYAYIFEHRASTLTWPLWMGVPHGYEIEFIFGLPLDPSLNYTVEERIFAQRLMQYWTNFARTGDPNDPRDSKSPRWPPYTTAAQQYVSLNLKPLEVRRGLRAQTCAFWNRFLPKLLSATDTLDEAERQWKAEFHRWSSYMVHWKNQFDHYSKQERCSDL
In words: Kinetics of irreversible cholinesterase inhibition (Kitz-Wilson). The class given is biochemical. As for the experimental part:
To determine kinetic constants of irreversible inhibition, cholinesterase from rat brain homogenates was incubated with the multifunctional compounds of the invention for designed time intervals in phosphate buffer pH 7.4.
The residual cholinesterase activity was immediately measured with the Ellman's colorimetric method after addition of 5,5′-dithiobis(2-nitrobenzoic) acid and 1 mM acetylthiocholine iodide. The inhibition kinetics were assessed according to Kitz-Wilson equation:
[formula] wherein: E represents the enzyme; I represents the intact carbamate (inhibitor); EI is the initial reversible enzyme complex; E* is the carbamylated enzyme; Ki represents the dissociation constant for EI; k+2 is the carbamylation rate constant and k+3 is the decarbamylation rate constant; kapp is the pseudo-first-order inhibition rate constant; ki, the second-order rate inhibition constant, is approximated by k+2/Ki. Under experimental condition [I]>>[E0].
According to equation (2), the logarithm of the ratio of the residual cholinesterase activity (E) and the initial cholinesterase activity (E0) is plotted against the time of incubation. The slopes of the lines representing kapp were determined by linear regression.
The slopes of the lines represent the pseudo-first-order inhibition rate constant (kapp) determined from linear regression analysis. […] The carbamylation rate constant (k+2) was obtained from the y-intercept, and the dissociation constant ([…] was obtained from the slope of the line multiplied by k+2 as described in Materials and Methods.
From these lines, the values of kapp were calculated based on Equation (2) of the Kitz-Wilson equations (see Material and Methods). […] The carbamylation rate constant k+2 is a measure of inactivation of ChE.

In test [3] the target is T5, total cholinesterase (ChE) (Rattus norvegicus, UniProt P37136).
T5 sequence (P37136 32-614): T4 sequence (P37136 32-614)
In words: Total cholinesterase inhibition in rat brain homogenates (Ellman). The class given is biochemical. The note with it: read-out: percent inhibition Total ChE. The procedure:
as §1, §2, §3
A general note: In Ellman's method for cholinesterases, released thiocholine reacts with DTNB.

In test [4] the test system is rat brain cholinesterase (total ChE). The note with it: cited from earlier work.

“And” between values parts separate entries of the source, which are not always exact repeats. Equal values may be shown once. Read-outs that look alike come from different tables or passages of the source.

T1 sequence (Q9JKC1 24-597): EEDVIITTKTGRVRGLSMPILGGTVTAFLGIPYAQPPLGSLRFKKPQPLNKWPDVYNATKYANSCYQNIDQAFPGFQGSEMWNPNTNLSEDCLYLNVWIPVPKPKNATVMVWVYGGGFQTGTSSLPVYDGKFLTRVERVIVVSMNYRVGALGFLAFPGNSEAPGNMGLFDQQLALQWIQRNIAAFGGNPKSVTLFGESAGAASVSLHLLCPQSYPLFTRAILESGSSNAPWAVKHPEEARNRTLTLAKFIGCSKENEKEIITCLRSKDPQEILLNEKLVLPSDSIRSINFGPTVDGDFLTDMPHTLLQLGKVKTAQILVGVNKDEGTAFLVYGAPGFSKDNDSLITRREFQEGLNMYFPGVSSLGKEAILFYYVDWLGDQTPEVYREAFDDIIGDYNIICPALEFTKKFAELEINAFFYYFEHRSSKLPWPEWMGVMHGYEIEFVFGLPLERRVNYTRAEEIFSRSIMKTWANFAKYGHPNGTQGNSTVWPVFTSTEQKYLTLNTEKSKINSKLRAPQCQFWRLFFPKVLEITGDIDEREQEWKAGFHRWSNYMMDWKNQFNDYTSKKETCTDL

With `C#CCN(C)Cc1ccc(OC(=O)N2CCCCC2)c2ncccc12` [Compound 6, 5-((methyl(propargyl)amino)methyl)quinolin-8-yl piperidine-1-carboxylate], the half-maximal inhibitory concentration (IC50) – broadly, the concentration that gives 50% inhibition – in test [1] was 45700 ± 5940 nM; at rat brain MAO-B, 1860 nM; on rat brain MAO-A, 4.7 to 20 nM and 4.7 nM. In test [2] (from ki), the “potency in inhibiting ChE relative to rivastigmine” value is recorded as “as potent”. In addition, the kinact in test [2] (pH 7.4, read-out: k+2 (carbamylation rate constant)) was 0.00117 s⁻¹. In addition, the kinact/KI in test [2] (pH 7.4, read-out: ki (second-order rate inhibition constant, approximated by k+2/Ki)) is 77.3 M⁻¹ s⁻¹.
In the case of `CCN(C)C(=O)Oc1cccc([C@H](C)N(C)C)c1` [Rivastigmine, (S)-N-ethyl-N-methyl-3-[1-(dimethylamino)ethyl]-phenyl carbamate], in test [3], the inhibition (in general, the change of the read-out against control, counted positive when it falls) at 1 µM was 62%. In test [4] (Data from ref.), the “k+2 (carbamylation rate constant)” value is recorded as 0.25^b min^−1 and the “ki (second-order rate inhibition constant)” value is reported as 4.54 × 10^3b M^−1 min^−1. In addition, in test [4] (Data from ref., listed as rivastigmine), the “k+2 (carbamylation rate constant)” value is 0.25 min⁻¹. In addition, the inhibition constant Ki (as a rule, a measure of affinity in units of concentration, obtained from inhibition or displacement) in test [4] (rivastigmine, data from ref., read-out: Ki, affinity to total ChE) is 55000 nM.

The values above are taken from patent US8802675B2, “Neuroprotective multifunctional compounds and pharmaceutical compositions comprising them” (priority 2009, dated 2014).
